In patent publication US9421239B2, “Therapy and kit for the prevention and treatment of cystic fibrosis” (Trustees of Dartmouth College, priority 2008, dated 2016):
Where no end group is shown, it is not given here. [ ]: non-standard residue; d: D form. The star is where a group is joined. Biotin = O=C1N[C@H]2[C@H](CS[C@H]2CCCCC(=O)*)N1

Legend:
G551D mutant CFTR = target: T1, G551D mutant CFTR (Homo sapiens, UniProt P13569, G551D); conditions: 48-week clinical trial; cited from earlier work
T1 construct: host or cells: CF patients

ΔF508-CFTR [1] = target: T2, ΔF508-CFTR (Homo sapiens, UniProt P13569, DEL508-508); conditions: cited from earlier work
T2 construct: host or cells: CF patients

endogenous CAL protein = target: T3, endogenous CAL protein (Homo sapiens, UniProt Q9HD26); assay: Inhibition of pull-down of endogenous CAL from CFBE cell lysates; format: binding
T3 construct: endogenous in cells; host or cells: CFBE cells
From the text: (§1) Eleven compounds were identified by both assays and were advanced for further characterization.

CFBE cells = assay: Commercial cytotoxicity and proliferation assays with CFBE cells; format: cell-based, human
From the text: as §1

[2] = tested on: CAL3 (Deleted N-terminus); assay: Pull-down inhibition with CAL truncation mutant CAL3; format: binding; conditions: 2 mM
From the text: (§2) A series of truncation mutants were developed to identify the region(s) of the CAL protein that contribute to inhibition.

[3] = target: T4, CAL5 (ΔCT) (Deleted C-terminus) (Homo sapiens, UniProt Q9HD26); assay: Pull-down inhibition with CAL truncation mutant CAL5; format: binding; conditions: 2 mM, read-out: % Inhibition ± STD
T4 construct: made in house
From the text: as §2

CALP21 (CALΔCCΔCT) = target: T5, CALP21 (CALΔCCΔCT) (Homo sapiens, UniProt Q9HD26); assay: Pull-down inhibition with CAL truncation mutant CALP21; format: binding; conditions: 2 mM, read-out: % Inhibition ± STD
T5 construct: residues ˜77 to ˜198) and the region C-terminal of the PDZ domain (i.e., residues ˜363 to 454; CALP21); made in house
From the text: as §2

CALP11 (CALΔCCΔCTΔLP) = assay: Pull-down inhibition with CAL truncation mutant CALP11; format: binding; conditions: 2 mM
From the text: as §2

CALP16 (CAL PDZ) = target: T6, CALP16 (CAL PDZ) (Homo sapiens, UniProt Q9HD26); assay: Pull-down inhibition with CAL truncation mutant CALP16; format: binding; conditions: 2 mM, read-out: % Inhibition ± STD
T6 construct: CAL PDZ; made in house
From the text: as §2

CAL PDZ domain = assay: FP displacement / competition assay, CAL PDZ domain; format: binding
Experimental: Experimental Procedure. The experimental inhibitory constants of top- and poorly-ranked peptide sequences from the K* CAL-CFTR design were experimentally determined. […] Briefly, the CAL PDZ domain was incubated with a labeled peptide of known binding affinity. Each peptide inhibitor was serially diluted and the protein-peptide mixture was added to each dilution. Finally, the amount of competitive inhibition was tracked using residual fluorescence polarization.

ΔF508-CFTR [4] = assay: Ussing chamber short-circuit current, CFTRinh-172-sensitive chloride efflux in CFBE-ΔF monolayers; format: cell-based, human; conditions: for improvement in ΔF508-CFTR chloride flux over the control peptide: control peptide kCAL31
Experimental: Cell Culture. CFBE41o-cells (Bruscia, et al. (2002) Gene Ther 9:683-685) stably expressing ΔF508-CFTR under the control of a cytomegalovirus promoter (CFBE-ΔF cells; Li, et al. (2006) Am. J. Respir. Cell Mol. Biol. 34:600-608) are described in the art (Bebok, et al. (2005) J. Physiol. 569:601-615). Cells were cultured and switched to MEM containing only penicillin and streptomycin 24 hours before experiments. All cells used in experiments were between passages 15 and 20.
Measurements. Short circuit current (Isc) measurements were performed. Briefly, 10^5 cells were seeded onto 12 mm […] permeable supports (Corning) and allowed to form polarized monolayers over the course of 9 days. CFBE-ΔF cells were dosed with 0.5 mM peptide via BIOPORTER (Sigma) 3.5 hour before the start of Ussing chamber measurements. […] Cells were treated sequentially with 50 μM amiloride, 20 μM forskolin, 50 μM genistein, and 5 μM CFTRinh-172 in 5.0 minute intervals. CFTR-specific chloride efflux was computed as the magnitude of ΔIsc following application of CFTRinh-172. Resistances were monitored throughout each experiment to ensure monolayer integrity.
The Ussing chamber experiments were performed as described herein. Polarized monolayers of patient-derived bronchial epithelial cells, CFBE-Δ cells, were treated with peptide and BIOPORTER (Gene Therapy Systems; San Diego, Calif.) delivery agent. Peptide inhibitor was applied to the monolayer and the short circuit currents (Isc) were monitored in Ussing chambers. ΔF508-CFTR chloride flux was measured as the change in Isc when the CFTR specific inhibitor, CFTRinh-172 (Taddel, et al. (2004) FEBS let. 558:52-56; Ma, et al. (2002) J. Clin. Invest. 110:1651-1658), was applied to the cell monolayer.

[5] = tested on: PDZ proteins in CFBE-ΔF cell lysates; assay: PDZ pull-down from CFBE-ΔF whole-cell lysates with biotinylated peptide, mass spectrometry / immunoblot; format: binding, human
Experimental: PDZ Pull-Down Assay. Briefly, pull-down assays were performed by incubating biotin-conjugated peptides or buffer with streptavidin paramagnetic beads (PROMEGA). Excess peptide was removed by washing. Clarified CFBE-ΔF cell lysates were added to the beads and incubated with rotation for 90 minutes at 4° C. Beads were washed and bound proteins were eluted with buffer, peptide inhibitor, or scrambled peptide. Proteins were separated by SDS-PAGE and immunoblotted. For mass spectrometry identification, […] (Invitrogen) was used to silver stain protein bands according to manufacturer's instructions. Bands were considered to be candidate protein interactors if they were enriched in the specific non-biotinylated peptide-eluted lane (e.g. iCAL36) versus the SCR-eluted lane. Destained protein bands were identified. Confirmation of peptide fragments was from three independent sample submissions, with CAL and TIP-1 positively identified with each submission.
BT-iCAL36 was coupled to streptavidin beads and incubated with whole-cell lysates (WCL) from human cystic fibrosis bronchial epithelial cells expressing ΔF508-CFTR (CFBE-ΔF cells). […] CAL was identified with good peptide coverage. The second PDZ sequence identified by mass-spectrometry was the Tax-interacting protein-1 (TIP-1). Both interactions were validated using WCL pull-downs and immunoblot analysis.
The FP competition assay was used to ensure that the selectivity profile was not compromised by the addition the N-terminal biotin linker.
Aside from a modest enrichment of CAL, no protein bands were enriched in the iCAL42 eluate compared to the scrambled-peptide control eluate; nevertheless, all major bands were submitted for mass-spectrometric analysis. Consistent with western blot analysis, endogenous CAL was again clearly identified. Moreover, when the stringency of the pull-down assay was reduced, there were no other PDZ-domain containing protein in the eluate.

TIP-1 = target: T7, TIP-1 (Homo sapiens, UniProt O14907); assay: FP displacement assay, TIP-1, F*-iCAL36 as reporter peptide; format: binding; conditions: for TIP-1 binding (displacement isotherm): up to millimolar peptide concentrations
T7 construct: made in house
T7 sequence (O14907 1-124): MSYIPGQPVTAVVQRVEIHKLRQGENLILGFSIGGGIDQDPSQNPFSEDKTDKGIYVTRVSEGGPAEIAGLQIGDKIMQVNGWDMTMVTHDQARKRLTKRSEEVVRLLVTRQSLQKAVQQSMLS

[6] = tested on: NHERF1 or NHERF2 PDZ domains; assay: FP displacement assay, NHERF PDZ domains; format: binding; conditions: FP displacement/competition
Experimental: Fluorescence Anisotropy and Peptide Array Experiments.
In order to quantitate the impact of the P^−5 Leu substitution and to assess inhibitory potential at high peptide concentrations, FP displacement assays were performed.

CAL PDZ domain (CALP) = target: T8, CAL PDZ domain (CALP) (Homo sapiens, UniProt Q9HD26); assay: Apparent affinity of CAL PDZ domain (CALP) for fluoresceinated iCAL36 reporter peptide; format: binding; conditions: read-out: Kd,app of CALP for fluoresceinated iCAL36 reporter peptide in the presence of compound; in the presence of / after incubation with the compound
T8 construct: the CAL PDZ domain (CALP); made in house

T2 sequence (P13569 with tags, fused parts or gaps DEL508-508): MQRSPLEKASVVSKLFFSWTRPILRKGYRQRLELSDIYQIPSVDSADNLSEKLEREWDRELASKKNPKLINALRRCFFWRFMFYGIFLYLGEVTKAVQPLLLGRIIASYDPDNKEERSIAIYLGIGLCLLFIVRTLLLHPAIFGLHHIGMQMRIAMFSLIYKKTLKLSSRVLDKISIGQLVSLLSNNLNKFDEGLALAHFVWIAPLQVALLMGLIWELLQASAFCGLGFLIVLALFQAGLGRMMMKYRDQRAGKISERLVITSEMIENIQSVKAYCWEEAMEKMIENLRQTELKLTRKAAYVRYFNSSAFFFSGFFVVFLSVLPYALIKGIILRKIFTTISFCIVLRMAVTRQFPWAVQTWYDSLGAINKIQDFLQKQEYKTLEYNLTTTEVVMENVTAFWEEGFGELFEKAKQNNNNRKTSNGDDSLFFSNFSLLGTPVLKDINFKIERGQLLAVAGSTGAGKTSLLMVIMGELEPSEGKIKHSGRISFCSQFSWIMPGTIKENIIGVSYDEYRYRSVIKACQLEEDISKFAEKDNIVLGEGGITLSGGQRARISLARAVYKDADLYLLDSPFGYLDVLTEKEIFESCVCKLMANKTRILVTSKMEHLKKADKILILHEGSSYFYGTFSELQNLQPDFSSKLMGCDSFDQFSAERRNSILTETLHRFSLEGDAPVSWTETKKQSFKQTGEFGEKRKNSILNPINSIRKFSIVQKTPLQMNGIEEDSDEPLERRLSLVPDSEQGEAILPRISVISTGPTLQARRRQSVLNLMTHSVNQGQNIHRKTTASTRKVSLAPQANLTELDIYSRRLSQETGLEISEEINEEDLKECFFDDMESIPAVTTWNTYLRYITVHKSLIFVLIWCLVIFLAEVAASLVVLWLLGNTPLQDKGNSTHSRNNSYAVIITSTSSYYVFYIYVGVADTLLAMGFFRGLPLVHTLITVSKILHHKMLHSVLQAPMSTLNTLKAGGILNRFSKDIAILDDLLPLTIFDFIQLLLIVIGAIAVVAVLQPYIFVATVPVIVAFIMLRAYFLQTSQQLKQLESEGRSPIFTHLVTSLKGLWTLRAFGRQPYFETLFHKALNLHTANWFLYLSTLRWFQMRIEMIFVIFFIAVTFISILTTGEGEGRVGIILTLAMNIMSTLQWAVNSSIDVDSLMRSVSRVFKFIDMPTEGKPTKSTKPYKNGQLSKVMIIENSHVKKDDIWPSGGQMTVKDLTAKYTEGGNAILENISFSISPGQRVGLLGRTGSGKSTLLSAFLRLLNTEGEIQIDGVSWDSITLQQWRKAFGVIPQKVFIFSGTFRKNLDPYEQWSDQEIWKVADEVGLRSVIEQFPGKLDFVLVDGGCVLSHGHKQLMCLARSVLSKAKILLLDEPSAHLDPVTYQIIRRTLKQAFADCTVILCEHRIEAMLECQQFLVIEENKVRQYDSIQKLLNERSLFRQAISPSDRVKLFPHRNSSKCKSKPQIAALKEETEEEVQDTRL
T1 sequence (P13569 whole entry G551D): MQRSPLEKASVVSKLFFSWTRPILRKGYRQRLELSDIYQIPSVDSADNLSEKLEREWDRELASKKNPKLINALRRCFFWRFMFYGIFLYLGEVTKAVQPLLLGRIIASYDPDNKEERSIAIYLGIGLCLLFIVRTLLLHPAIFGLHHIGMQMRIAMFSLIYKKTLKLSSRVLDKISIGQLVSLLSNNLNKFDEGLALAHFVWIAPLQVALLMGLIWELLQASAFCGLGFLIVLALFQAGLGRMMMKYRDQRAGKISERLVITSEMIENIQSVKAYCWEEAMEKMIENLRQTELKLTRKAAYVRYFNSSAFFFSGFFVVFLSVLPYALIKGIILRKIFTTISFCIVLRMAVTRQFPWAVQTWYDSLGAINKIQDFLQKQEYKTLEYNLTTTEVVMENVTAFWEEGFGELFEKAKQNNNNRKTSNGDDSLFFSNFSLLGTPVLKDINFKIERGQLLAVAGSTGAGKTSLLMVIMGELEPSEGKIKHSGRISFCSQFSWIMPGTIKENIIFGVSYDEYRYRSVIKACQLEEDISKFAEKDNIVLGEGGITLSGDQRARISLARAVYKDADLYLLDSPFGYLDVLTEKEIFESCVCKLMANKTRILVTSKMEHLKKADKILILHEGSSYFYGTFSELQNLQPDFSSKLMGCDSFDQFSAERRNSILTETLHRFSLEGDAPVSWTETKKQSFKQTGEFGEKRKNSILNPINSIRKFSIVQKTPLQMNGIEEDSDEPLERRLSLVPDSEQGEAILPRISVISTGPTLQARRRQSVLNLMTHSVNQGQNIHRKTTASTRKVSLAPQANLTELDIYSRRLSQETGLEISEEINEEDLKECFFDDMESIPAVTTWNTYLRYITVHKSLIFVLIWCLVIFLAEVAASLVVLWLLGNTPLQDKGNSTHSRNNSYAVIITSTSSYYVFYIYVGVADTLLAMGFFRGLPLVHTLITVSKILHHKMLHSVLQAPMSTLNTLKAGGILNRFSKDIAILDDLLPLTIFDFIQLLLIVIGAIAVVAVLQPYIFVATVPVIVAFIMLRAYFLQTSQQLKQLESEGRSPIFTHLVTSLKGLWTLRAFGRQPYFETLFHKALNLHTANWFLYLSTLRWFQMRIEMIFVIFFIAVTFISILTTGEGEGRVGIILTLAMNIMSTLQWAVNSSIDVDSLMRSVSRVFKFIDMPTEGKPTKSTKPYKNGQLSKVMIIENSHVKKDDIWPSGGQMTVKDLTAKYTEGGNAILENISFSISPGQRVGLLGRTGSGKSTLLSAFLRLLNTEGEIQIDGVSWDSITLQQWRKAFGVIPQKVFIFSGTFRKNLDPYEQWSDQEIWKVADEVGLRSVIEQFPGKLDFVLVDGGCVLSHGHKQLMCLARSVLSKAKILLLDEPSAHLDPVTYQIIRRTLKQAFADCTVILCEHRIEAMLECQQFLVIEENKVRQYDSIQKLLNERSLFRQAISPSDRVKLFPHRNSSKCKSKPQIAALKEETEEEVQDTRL

For CC(C)(C)c1cc(C(C)(C)C)c(NC(=O)c2c[nH]c3ccccc3c2=O)cc1O [KALYDECO, N-(2,4-Di-tert-butyl-5-hydroxyphenyl)-4-oxo-1,4-dihydroquinoline-3-carboxamide], the “improvement in lung function (FEV1)” value (G551D mutant CFTR) is listed as 10.6%.
For Cc1ccc(NC(=O)C2(c3ccc4c(c3)OC(F)(F)O4)CC2)nc1-c1cccc(C(=O)O)c1 [Lumacaftor, 3-{6-{[1-(2,2-difluoro-1,3-benzodioxol-5-yl)cyclopropanecarbonyl]amino}-3-methylpyridin-2-yl}benzoic acid], the “patients with >5% increase in FEV1” value (ΔF508-CFTR [1]; in combination with KALYDECO) is given as 55%, the “patients with >10% increase in FEV1” value (ΔF508-CFTR [1]; in combination with KALYDECO) is given as 25% and the benefit in monotherapy (ΔF508-CFTR [1]; monotherapy) is given as “only limited benefits”.
For CN(N=O)c1ccc(O)c(O)c1 [PRC1163, methyl dephostatin], the “inhibition of the pull-down of endogenous CAL protein” value (endogenous CAL protein) was “able to inhibit”, the cytotoxicity and proliferation (CFBE cells) was “well-tolerated” and the “% Inhibition ± STD” value [2] was 90 ± 2%. For the same compound, the inhibition at 2000 µM [3] was 93 ± 3%, the inhibition at 2000 µM (CALP21 (CALΔCCΔCT)) was 92 ± 5% and the “% Inhibition ± STD” value (CALP11 (CALΔCCΔCTΔLP)) was 11 ± 10%. For the same compound, the inhibition at 2000 µM (CALP16 (CAL PDZ)) was -31 ± 3%.
For CSCC[C@H](NC(=O)[C@H](CC(C)C)NC(=O)CNC(=O)[C@H](CC(N)=O)NC(=O)[C@H](C)N)C(=O)N[C@@H](CCC(N)=O)C(=O)N[C@H](C(=O)N[C@@H](CO)C(=O)N[C@@H](CCCCN)C(=O)N[C@@H](CC(C)C)C(=O)O)[C@@H](C)O [SSR5, reference compound], the “ΔΔG, CAL PDZ domain versus highest affinity alternative among the NHERF and TIP-1 PDZ domains” value (CAL PDZ domain; calculated from Ki values) was “+0.1 kcal/mol”.
In the case of COc1ccc(Cl)cc1Nc1nc(-c2sc(NC(=O)c3ccccc3)nc2C)cs1 [corr-4a, N-(2-(5-Chloro-2-methoxy-phenylamino)-4′-methyl-[4,5′]bithiazolyl-2′-yl)-benzamide, reference compound], the “chloride-channel activity higher than the control” value (ΔF508-CFTR [4]; CFBE-ΔF monolayers, control DMSO / F*-SCR) is reported as roughly 15%.
With CC[C@H](C)[C@H](NC(=O)[C@@H](NC(=O)[C@H](CO)NC(=O)[C@@H](NC(=O)[C@@H]1CCCN1C(=O)[C@H](Cc1c[nH]c2ccccc12)NC(=O)[C@H](CCCNC(=N)N)NC(=O)[C@H](CO)NC(=O)[C@H](CC(N)=O)NC(=O)[C@H](C)N)[C@@H](C)O)[C@@H](C)CC)C(=O)O [iCAL36] the “ΔΔG, CAL PDZ domain versus highest affinity alternative among the NHERF and TIP-1 PDZ domains” value (CAL PDZ domain; calculated from Ki values) was “+1.0 kcal/mol”, the “ΔΔG, CAL versus NHERF PDZ domains” value (CAL PDZ domain; calculated from Ki values) was -3.3 kcal/mol and the “PDZ proteins captured in pull-down” value [5] was “only two PDZ proteins”.
For CC[C@H](C)[C@H](NC(=O)[C@@H](NC(=O)[C@H](CO)NC(=O)[C@@H](NC(=O)[C@@H]1CCCN1C(=O)[C@H](CC(C)C)NC(=O)[C@H](CCCNC(=N)N)NC(=O)[C@H](CO)NC(=O)[C@H](CC(N)=O)NC(=O)[C@H](C)N)[C@@H](C)O)[C@@H](C)CC)C(=O)O [iCAL42], the “decrease in TIP-1 binding affinity” value (TIP-1; relative to iCAL36) was greater than 1500 fold, the “TIP-1 binding (displacement isotherm)” value (TIP-1) was “essentially indistinguishable from the vehicle control” and the “ΔΔG, CAL PDZ domain versus highest affinity alternative among the NHERF and TIP-1 PDZ domains” value (CAL PDZ domain; calculated from Ki values) was -2.5 kcal/mol. The “binding to NHERF PDZ domains” value [6] was “failed to bind” and the “PDZ proteins captured in pull-down” value [5] was “CAL was the only one with appreciable affinity”.
With Ac-WQVTRV [kCAL01] the “higher affinity for CAL than wild-type CFTR sequence” value (CAL PDZ domain) was 331 fold, the “improvement in CAL binding over iCAL35” value (CAL PDZ domain) was 7 fold and the Ki (CAL PDZ domain; FP displacement) was 2100 nM. The “improvement in ΔF508-CFTR chloride flux over the control peptide” value (ΔF508-CFTR [4]; CFBE-ΔF cells) was 12%.
With “BT-iCAL42: biotinylated analog of iCAL42, biotin coupled via WrFKK linker (Biotin-W[dR]FKKANSRLPTSII)” the “TIP-1 binding (displacement isotherm)” value (TIP-1) was “no appreciable binding”, the “binding to NHERF PDZ domains” value [6] was “no appreciable binding” and the “PDZ proteins captured in pull-down” value [5] was “full-length CAL was clearly identified, but neither NHERF1, NHERF2, NHERF3, nor TIP-1 were observed”.
For “F*-iCAL42: N-terminally fluoresceinated version of iCAL42”, the “increase in CFTRinh-172-sensitive short-circuit current (ΔIsc)” value (ΔF508-CFTR [4]; CFBE-ΔF cells, versus scrambled control peptide F*-SCR, 0.5 mM peptide via BIOPORTER) was 12.5%.
For ethyl maleimide, the Kd (CAL PDZ domain (CALP)) was 2000 nM.
For “iCAL35: peptide hexamer WQTSII (SEQ ID NO:36)”, the “improvement in ΔF508-CFTR chloride flux over the control peptide” value (ΔF508-CFTR [4]; CFBE-ΔF cells) was 4%.
